Toxic doses and inconclusive results are not listed.
Test system: P388 leukemia ip, CD2F1 mice, survival T/C
Assay: NCI In Vivo Anticancer Drug Screen. Data for tumor model P388 Leukemia (intraperitoneal) in CD2F1 (CDF1) mice
Details: endpoint: median survival time, higher = longer survival
Summary of the method: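 Mice carrying the transplanted tumor received test compound or vehicle. Survival was recorded in each group, and the value is the treated-group measurement divided by that of the vehicle-treated control group.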

[1] = dose: 100.0 mg/kg/injection, schedule: Q01DX001 (ip), vehicle: saline
[2] = dose: 50.0 mg/kg/injection, schedule: Q01DX009 (ip), vehicle: Klucel (hydroxypropylcellulose) (HPC)
[3] = dose: 100.0 mg/kg/injection, schedule: Q01DX009 (ip), vehicle: Klucel (hydroxypropylcellulose) (HPC)
[4] = dose: 200.0 mg/kg/injection, schedule: Q01DX009 (ip), vehicle: Klucel (hydroxypropylcellulose) (HPC)
[5] = dose: 25.0 mg/kg/injection, schedule: Q01DX009 (ip), vehicle: saline with Tween-80
[6] = dose: 50.0 mg/kg/injection, schedule: Q01DX009 (ip), vehicle: saline with Tween-80
[7] = dose: 100.0 mg/kg/injection, schedule: Q01DX009 (ip), vehicle: saline with Tween-80
[8] = dose: 200.0 mg/kg/injection, schedule: Q01DX009 (ip), vehicle: saline with Tween-80
[9] = dose: 50.0 mg/kg/injection, schedule: Q01DX009 (ip), vehicle: saline

Nc1nc(N)c(-c2ccc(Cl)cc2)c(COc2ccc(NC(=O)c3ccc(NC(=O)CCl)cc3)cc2)n1
T/C (dose: 25.0 mg/kg/injection, schedule: Q01DX001 (ip), vehicle: saline): 104 % of control | T/C (dose: 50.0 mg/kg/injection, schedule: Q01DX001 (ip), vehicle: saline): 107 % of control | T/C [1]: 114 % of control

COC(=O)CC1(C(=O)OC)c2ccc3ccccc3c2N2CCCC21 (stereo not drawn)
T/C [1]: 102 % of control | T/C (dose: 200.0 mg/kg/injection, schedule: Q01DX001 (ip), vehicle: saline): 100 % of control | T/C (dose: 400.0 mg/kg/injection, schedule: Q01DX001 (ip), vehicle: saline): 100 % of control

CC1CN2C(=O)NC(=O)C1(c1ccccc1)C2=O (stereo not drawn)
T/C [2]: 100 % of control | T/C [3]: 93 % of control | T/C [4]: 97 % of control

CC1(C)OC2C(COC(=O)c3ccc([N+](=O)[O-])cc3)OC(NC(=O)N(CCCl)N=O)C2O1 (stereo not drawn)
T/C (dose: 0.09 mg/kg/injection, schedule: Q01DX009 (ip), vehicle: saline with Tween-80): 119 % of control | T/C (dose: 0.19 mg/kg/injection, schedule: Q01DX009 (ip), vehicle: saline with Tween-80): 119 % of control | T/C (dose: 0.39 mg/kg/injection, schedule: Q01DX009 (ip), vehicle: saline with Tween-80): 119 % of control | T/C (dose: 1.56 mg/kg/injection, schedule: Q01DX009 (ip), vehicle: saline with Tween-80): 153 % of control | T/C (dose: 3.12 mg/kg/injection, schedule: Q01DX009 (ip), vehicle: saline with Tween-80): 174 % of control | T/C (dose: 12.5 mg/kg/injection, schedule: Q01DX009 (ip), vehicle: saline with Tween-80): 202 % of control | T/C [5]: 272 % of control | T/C [6]: 282 % of control | T/C [7]: 154 % of control | T/C [8]: 109 % of control

Fc1ccc(-c2cc(-c3cccs3)cc(-c3ccccc3)n2)cc1
T/C [2]: 121 % of control | T/C [3]: 102 % of control | T/C [4]: 100 % of control

O=Cc1ccc([N+](=O)[O-])s1
T/C [9]: 120 % of control

CCC(=O)O[C@H]1CC[C@H]2[C@@H]3C[C@H](C)C4=CC(=O)C=C[C@]4(C)[C@H]3C(=O)C[C@]12C
T/C (dose: 100.0 mg/kg/injection, schedule: Q04DX003 (ip), vehicle: saline with Tween-80): 90 % of control | T/C (dose: 200.0 mg/kg/injection, schedule: Q04DX003 (ip), vehicle: saline with Tween-80): 104 % of control | T/C (dose: 400.0 mg/kg/injection, schedule: Q04DX003 (ip), vehicle: saline with Tween-80): 100 % of control

CN1N=C(c2ccccc2)N=P12N=C(c1ccccc1)NN2C (stereo not drawn)
T/C (dose: 60.0 mg/kg/injection, schedule: Q01DX005 (ip), vehicle: saline): 94 % of control | T/C (dose: 120.0 mg/kg/injection, schedule: Q01DX005 (ip), vehicle: saline): 102 % of control | T/C (dose: 240.0 mg/kg/injection, schedule: Q01DX005 (ip), vehicle: saline): 103 % of control

CC1[N-]CCCN(CCN(C)C)CCC[N-]C(C)C2CCCC1[N-]2.[Ni+3].[O-][Cl+3]([O-])([O-])O (stereo not drawn)
T/C [1]: 106 % of control

CC(NCc1ccccc1)[Si](C)(C)C (stereo not drawn)
T/C (dose: 50.0 mg/kg/injection, schedule: Q01DX005 (ip), vehicle: saline with Tween-80): 102 % of control | T/C (dose: 100.0 mg/kg/injection, schedule: Q01DX005 (ip), vehicle: saline with Tween-80): 105 % of control

O=C(O)c1cccc(-c2c3ccc(=O)cc-3oc3cc(O)ccc23)c1
T/C (dose: 60.0 mg/kg/injection, schedule: Q01DX005 (ip), vehicle: Klucel (hydroxypropylcellulose) (HPC)): 104 % of control | T/C (dose: 120.0 mg/kg/injection, schedule: Q01DX005 (ip), vehicle: Klucel (hydroxypropylcellulose) (HPC)): 113 % of control | T/C (dose: 240.0 mg/kg/injection, schedule: Q01DX005 (ip), vehicle: Klucel (hydroxypropylcellulose) (HPC)): 110 % of control

Nc1nc(-c2cccc3ccccc23)cc2ccccc12
T/C (dose: 12.5 mg/kg/injection, schedule: Q01DX009 (ip), vehicle: water): 124 % of control | T/C (dose: 100.0 mg/kg/injection, schedule: Q01DX009 (ip), vehicle: water): 150 % of control | T/C (dose: 200.0 mg/kg/injection, schedule: Q01DX009 (ip), vehicle: water): 166 % of control

CCOC(=O)c1cc(-c2ccccn2)c(=O)n2ccccc12
T/C (dose: 12.5 mg/kg/injection, schedule: Q01DX009 (ip), vehicle: saline): 108 % of control | T/C (dose: 25.0 mg/kg/injection, schedule: Q01DX009 (ip), vehicle: saline): 107 % of control | T/C [6]: 100 % of control | T/C [9]: 100 % of control

CCOC(=O)c1c(C(=O)OCC)c(C)n(/N=N/n2c(C)c(C(=O)OCC)c(C(=O)OCC)c2C)c1C
T/C (dose: 50.0 mg/kg/injection, schedule: Q01DX005 (ip), vehicle: Klucel (hydroxypropylcellulose) (HPC)): 103 % of control | T/C (dose: 100.0 mg/kg/injection, schedule: Q01DX005 (ip), vehicle: Klucel (hydroxypropylcellulose) (HPC)): 87 % of control

c1ccc(-c2nc3ccccc3o2)cc1
T/C [5]: 86 % of control | T/C [6]: 98 % of control | T/C [7]: 101 % of control | T/C [8]: 88 % of control

Reference: PubChem BioAssay AID330 (DTP/NCI, 2004)
